Data published in US20060148030A1, “Nuclear receptor err y 3” (FUJISAWA PHARMACEUTICAL CO., LTD, priority 2002, published 2006).

Tests used:
[1] = target: T1, ERRγ1 (Homo sapiens, UniProt P62508); settings: stated as known property; cited from earlier work
T1 sequence (P62508 1-435 isoform P62508-2): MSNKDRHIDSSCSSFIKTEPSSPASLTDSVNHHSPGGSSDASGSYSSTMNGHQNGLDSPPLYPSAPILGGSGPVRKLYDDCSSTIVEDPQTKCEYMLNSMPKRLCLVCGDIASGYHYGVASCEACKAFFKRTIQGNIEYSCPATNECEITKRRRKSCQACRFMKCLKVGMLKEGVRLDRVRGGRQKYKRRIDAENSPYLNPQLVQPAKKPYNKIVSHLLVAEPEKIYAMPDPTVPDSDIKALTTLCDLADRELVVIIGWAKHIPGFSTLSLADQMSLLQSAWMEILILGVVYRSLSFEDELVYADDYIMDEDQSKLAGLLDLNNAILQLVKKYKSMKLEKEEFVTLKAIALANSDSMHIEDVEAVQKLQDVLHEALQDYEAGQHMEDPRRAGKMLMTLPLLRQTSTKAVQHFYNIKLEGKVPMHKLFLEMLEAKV

[2] = target: T2, PPARγ (Homo sapiens, UniProt P37231); assay: Reporter gene assay, ERRγ3 coexisted with PPARγ, pGVP2-PPRE1 in CV-1 cells; type: cell-based; settings: 10^−6 M rosiglitazone, FIG. 24
T2 construct: expressed in transfected cells; host or cells: CV-1 (African green monkey kidney)
T2 sequence (P37231 1-477 isoform P37231-2): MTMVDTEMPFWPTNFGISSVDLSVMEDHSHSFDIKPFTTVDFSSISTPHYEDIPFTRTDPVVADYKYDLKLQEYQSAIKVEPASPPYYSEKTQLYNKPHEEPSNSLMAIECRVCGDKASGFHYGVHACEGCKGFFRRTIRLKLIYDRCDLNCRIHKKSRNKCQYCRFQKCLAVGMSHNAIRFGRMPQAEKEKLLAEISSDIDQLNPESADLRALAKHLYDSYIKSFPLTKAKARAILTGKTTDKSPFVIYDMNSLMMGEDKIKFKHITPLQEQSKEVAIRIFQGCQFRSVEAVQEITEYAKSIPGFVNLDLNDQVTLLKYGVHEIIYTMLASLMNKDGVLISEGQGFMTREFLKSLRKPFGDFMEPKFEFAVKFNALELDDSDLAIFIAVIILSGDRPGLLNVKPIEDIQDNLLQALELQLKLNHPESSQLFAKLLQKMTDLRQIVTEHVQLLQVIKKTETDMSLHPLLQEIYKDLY
T2 sequence (P19793 1-462 partner): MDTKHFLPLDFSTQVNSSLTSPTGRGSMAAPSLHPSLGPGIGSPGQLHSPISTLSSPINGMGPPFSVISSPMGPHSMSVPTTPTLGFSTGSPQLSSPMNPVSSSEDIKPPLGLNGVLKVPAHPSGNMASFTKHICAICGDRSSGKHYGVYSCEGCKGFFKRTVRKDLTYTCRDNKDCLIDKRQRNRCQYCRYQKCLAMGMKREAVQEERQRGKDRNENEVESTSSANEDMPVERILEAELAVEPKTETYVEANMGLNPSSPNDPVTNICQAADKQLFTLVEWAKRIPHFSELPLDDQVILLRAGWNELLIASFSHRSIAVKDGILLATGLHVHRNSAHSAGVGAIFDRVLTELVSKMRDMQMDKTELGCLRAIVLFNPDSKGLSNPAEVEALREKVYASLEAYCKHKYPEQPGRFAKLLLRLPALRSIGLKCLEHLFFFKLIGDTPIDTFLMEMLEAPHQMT
Protocol: Transfection was performed as follows: CV-1 cells were resuspended in DMEM supplemented with 10% fetal bovine serum, 2000 U/l of penicillin G, and 100 mg/l of streptomycin to a concentration of 2×10^5 cells/2.5 ml. This was then seeded to a 6-well plate at 2.5 ml per well, and incubated for 18-24 hours in a CO2 incubator at 37° C. and 5% CO2. 1 μg of each of the expression plasmids for the transcription factors, the luciferase reporter plasmid, and another luciferase reporter plasmid used for normalization of the measured values (pRL-TK), were dissolved in Opti-MEM (Gibco BRL), to a total of 150 μl. […] Luciferase activity was measured using the Dual-Luciferase™ Reporter Assay System (Promega). […] The protocol for measurement was as follows: 50 μl of Luciferase Assay Reagent II was added to each well, stirred for 0.3 seconds, and measured for one second. 50 μl of Stop&Glo™ Reagent was then added, stirred for 0.3 seconds, and measured for one second. The measured values for firefly luciferase activity were corrected by dividing by the value for the Renilla luciferase activity, the internal control. Average values and standard errors were calculated from triplicate samples.
The effect of ligands on the function of ERRγ3 in enhancing the transcriptional activation function of peroxisome proliferator activated receptor (PPAR) α, β, or γ was evaluated using the reporter gene assay (FIG. 24). […]

4-hydroxytamoxifen [reference compound]
inhibition of the transcriptional activation function of ERRγ1 [1]: inhibiting their transcriptional activation function

B1: ERRγ3: novel ERRγ isoform, nuclear receptor protein of 396 amino acids (SEQ ID NO: 2) lacking part of the DNA binding domain (protein, listed as Homo sapiens)
chain: MSNKDRHIDSSCSSFIKTEPSSPASLTDSVNHHSPGGSSDASGSYSSTMNGHQNGLDSPPLYPSAPILGGSGPVRKLYDDCSSTIVEDPQTKCEYMLNSMPKRLCLVCGDIASGYHYGVASCEACKAFFKRTIQGVRLDRVRGGRQKYKRRIDAENSPYLNPQLAQPAKKPYNKIVSHLLVAEPEKIYAMPDPTVPDSDIKALTTLCDLADRELVVIIGWAKHIPGFSTLSLADQMSLLQSAWMEILILGVVYRSLSFEDELVYADDYIMDEDQSKLAGLLDLNNAILQLVKKYKSMKLEKEEFVTLKAIALANSDSMHIEDVEAVQKLQDVLHEALQDYEAGQHMEDPRRAGKMLMTLPLLRQTSTKAVQHFYNIKLEGKVPMHKLFLEMLEAKV
modifying effect on the transcriptional stimulation activity of PPARγ [2]: did not show any significant modifying effect
